These results are taken from PMC11992225, “Antibacterial compounds against non-growing and intracellular bacteria” (npj Antimicrobials and Resistance, 2025).

In brackets after ≈: the same amount, converted by molar mass. Read-outs that look alike come from different tables or passages of the source.

Assay [1] concerns E. coli CFT073 (UPEC). Kind of assay: MIC, standard microdilution assay, growing UPEC. Format: cell-based, Escherichia coli. The gist of the method:
(§1)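 Medium: CA-MHB + 40 mM HEPES, pH 7.4 (UPEC, P. aeruginosa, S. aureus); LPM + 30 mM MES, pH 5.5 (UPEC, extra condition); TSB (S. flexneri). Microdilution format, n = 3.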
For orientation: Dilution methods test growth across graded concentrations, often in twofold steps.

Assay [2] has as its system P. aeruginosa DSM1117. Kind of assay: MIC, standard microdilution assay, growing P. aeruginosa. The assay is classed as cell-based, Pseudomonas aeruginosa. An outline of the steps: as §1
Assay [3] concerns S. aureus DSM2569. Description: MIC, standard microdilution assay, growing S. aureus. The assay is classed as cell-based, Staphylococcus aureus. An outline of the steps:
as §1

Assay [4] has as its system non-growing P. aeruginosa DSM1117. Kind of assay: Dilution-regrowth assay (OD600, start-growth-time) on stationary-phase P. aeruginosa. Format: cell-based, Pseudomonas aeruginosa. As for the experimental part: To determine the spectrum of activity of the compounds that were effective against non-growing UPEC, we further assessed their efficacy against the well-characterized Gram-negative and Gram-positive reference strains P. aeruginosa DSM1117 and S. aureus DSM2569, respectively. The cultures were grown and treated for 24 h in 1:4 CA-MHB (pH 7.4). […].
For better characterization of the compounds causing the strongest regrowth delay, we performed the regrowth step of the dilution-regrowth experiments on a plate reader, measuring the OD600 at 20-min intervals for over 20 h instead of using an endpoint measurement. This approach allowed us to capture the time when cultures reached a threshold optical density (start-growth-time, SGT[15]).
Overnight cultures of UPEC, P. aeruginosa and S. aureus were grown in test tubes containing 3 ml of LB broth (~16 h), then diluted 1:100 into either 1:4 diluted CA-MHB medium buffered with 40 mM HEPES (pH 7.4) or, in case of UPEC, into LPM medium[25] supplemented with 49 µM MgCl2 and buffered with 30 mM MES (pH 5.5). The cultures were incubated for 24 h in non-baffled Erlenmeyer flasks at 37 °C with shaking at 200 rpm.
For P. aeruginosa and S. aureus, dose–response analysis was conducted in 96-well plates with a 200 μl assay volume, following the procedure used for screening assay validation experiments. Aliquots of the 39 compounds active against non-growing UPEC were obtained from SelleckChem and MedChem Express. Stock solutions were prepared and stored according to the manufacturers’ instructions, then diluted in 10% DMSO before use. Cultures were incubated for 24 h in 1:4 diluted CA-MHB medium under the same conditions used for UPEC cultivation. In preliminary experiments, each compound was tested at a concentration of 20 μM in the dilution-regrowth assay with 4 technical replicates. Regrowth was monitored using a microplate reader at 37 °C with continuous shaking, and OD600 was recorded every 20 min. The time at which OD600 exceeded the threshold of 0.12 was recorded as the Start_Growth-Time.
The statistical analysis of all data, as well as EC50 and IC50 determination, was conducted using GraphPad Prism 10.2.3. Statistical significance of the drug effects was assessed using a one-way ANOVA followed by Dunnett’s test, comparing each treatment to the drug-free control. Statistical significance of the differences in chemical characteristics between the hit compounds and the Prestwick library was assessed using a Mann–Whitney test. Statistical significance was set at P ≤ 0.05. A five-parameter logistic equation was used for asymmetric sigmoidal curve fitting and for EC50 and IC50 determination. The Venn diagram in Fig. 1F was prepared using BioVenn web application. Characteristics of the chemical and physical properties of Prestwick library compounds were obtained from Supplementary Table S1 from reference. Characteristics of the hit compounds not included in the Prestwick library were retrieved from the PubChem database.

Where [5] appears, read: P. aeruginosa, drug concentration 0.1.
The mark [6] stands for this setting: P. aeruginosa, drug concentration 0.5.
Where [7] appears, read: P. aeruginosa, drug concentration 2.5.
The mark [8] stands for this setting: P. aeruginosa, drug concentration 10.

With `CO[C@@]12[C@H](COC(N)=O)C3=C(C(=O)C(C)=C(N)C3=O)N1C[C@@H]1N[C@@H]12` [Mitomycin C], the MIC (in general, the lowest concentration that inhibits growth of the organism) was 0.5 µM (≈ 0.167 µg/mL) in assay [1] (Escherichia coli, pH 5.5); 2 µM (≈ 0.669 µg/mL) in assay [1] (Escherichia coli, pH 7.4, read-out: MIC (μM) CA-MHB); 10 µM (≈ 3.34 µg/mL) in assay [2] (Pseudomonas aeruginosa, DSM1117, pH 7.4, read-out: MIC (μM) 1:4 CA-MHB); 10 µM (≈ 3.34 µg/mL) in assay [2] (Pseudomonas aeruginosa, DSM1117, pH 7.4, read-out: MIC (μM) CA-MHB); 0.25 µM (≈ 0.0836 µg/mL) in assay [3] (Staphylococcus aureus, DSM2569, pH 7.4, read-out: MIC (μM) CA-MHB). The “Regrowth, OD600 at 6h or 8h after dilution into drug-free medium (average)” value in assay [4] (setting [5]) was 0.203; in assay [4] (setting [6]) it was 0.116; in assay [4] (setting [7]), 0.094; in assay [4] (setting [8]), 0.095. Moreover, the EC50 (in general, the concentration giving half of the maximal effect) in assay [4] (Pseudomonas aeruginosa, DSM1117, pH 7.4) is 0.028 µM.
Take `CN1CCN(c2cc3c(cc2F)c(=O)c(C(=O)O)cn3-c2ccc(F)cc2)CC1` [Difloxacin]: the MIC in assay [1] (Escherichia coli, E. coli, LPM pH 5.5, read-out: MIC) stood at 0.0625 µM (≈ 0.025 µg/mL); in assay [1] (Escherichia coli, E. coli, pH 7.4, CA-MHB, read-out: MIC (μM) CA-MHB) it was 0.25 µM (≈ 0.0998 µg/mL); in assay [2] (Pseudomonas aeruginosa, DSM1117, P. aeruginosa, 1:4 diluted CA-MHB pH 7.4, read-out: MIC (μM) 1:4 CA-MHB) it was 8 µM (≈ 3.2 µg/mL); in assay [2] (Pseudomonas aeruginosa, DSM1117, P. aeruginosa, CA-MHB pH 7.4, read-out: MIC (μM) CA-MHB), 8 µM (≈ 3.2 µg/mL); in assay [3] (Staphylococcus aureus, DSM2569, S. aureus, CA-MHB pH 7.4, read-out: MIC (μM) CA-MHB) it was 1 µM (≈ 0.399 µg/mL). Further, the EC50 in assay [4] (Pseudomonas aeruginosa, DSM1117, P. aeruginosa, regrowth delay of non-growing bacteria, 1:4 CA-MHB pH 7.4, 24 h treatment, OD600 8 h after dilution, read-out: EC50) is 2.36 µM.
In the case of `CC(=O)[O][Pt]([NH2])([Cl])([Cl])([NH]C1CCCCC1)[O]C(C)=O` [Satraplatin], the MIC is 32 µM in assay [1] (E. coli, LPM pH 5.5, read-out: MIC); over 160 µM in assay [1] (E. coli, pH 7.4, CA-MHB, read-out: MIC (μM) CA-MHB); 160 µM in assay [2] (P. aeruginosa, CA-MHB pH 7.4, read-out: MIC (μM) CA-MHB); 80 µM in assay [3] (S. aureus, CA-MHB pH 7.4, read-out: MIC (μM) CA-MHB). Moreover, the “Regrowth, OD600 at 6h or 8h after dilution into drug-free medium (average)” value turned out to be 0.622 in assay [4] (setting [5]), 0.518 in assay [4] (setting [6]), 0.207 in assay [4] (setting [7]) and 0.094 in assay [4] (setting [8]). In addition, the EC50 in assay [4] (P. aeruginosa, regrowth delay of non-growing bacteria, 1:4 CA-MHB pH 7.4, 24 h treatment, OD600 8 h after dilution, read-out: EC50) was found to be 1.2 µM.
